Activity calls are given as the source filed them. The rule behind the calls is not given here.
What was measured:
Plasmodium falciparum [1] = experiment: Antimalarial activity against chloroquine-sensitive Plasmodium falciparum 3D7 infected in human erythrocytes assessed as reduction in parasite growth incubated for 72 hrs by SYBR green dye fluorimetric assay; type: functional, organism-based; conditions: 3D7, Erythrocyte
[2] = Cytotoxicity against human HepG2 cells; type: toxicity, cell-based
[3] = Selectivity index, ratio of CC50 for cytotoxicity against human HepG2 cells to IC50 for antimalarial activity against chloroquine-sensitive Plasmodium falciparum 3D7 infected in human erythrocytes assessed as reduction in parasite growth incubated for 72 hrs by SYBR green dye fluorimetric assay; type: toxicity, cell-based; conditions: read-out: Ratio CC50/IC50
[4] = Resistance index, ratio of IC50 for antimalarial activity against […] infected in human erythrocytes to IC50 for antimalarial activity against chloroquine-sensitive Plasmodium falciparum 3D7 infected in erythrocytes; type: functional
Plasmodium falciparum [5] = experiment: Induction of morphological changes in asexual blood stage Plasmodium falciparum assessed as appearance of fragmentation at 1 uM incubated for 24 hrs by Geimsa-staining based light microscopic analysis; type: functional, organism-based
Plasmodium falciparum [6] = experiment: Induction of morphological changes in asexual blood stage Plasmodium falciparum assessed as appearance of schizonts at 1 uM incubated for 48 to 72 hrs by Geimsa-staining based light microscopic analysis; type: functional, organism-based; conditions: time 48-72 hrs
Plasmodium falciparum [7] = experiment: Induction of morphological changes in asexual blood stage Plasmodium falciparum assessed as lack of prominent periphery in trophozoites at 1 uM incubated for 24 hrs by Geimsa-staining based light microscopic analysis; type: functional, organism-based
Plasmodium falciparum [8] = experiment: Induction of morphological changes in asexual blood stage Plasmodium falciparum assessed as appearance of healthy rings at 1 uM incubated for 48 to 72 hrs by Geimsa-staining based light microscopic analysis; type: functional, organism-based; conditions: time 48-72 hrs
Plasmodium falciparum [9] = experiment: Antimalarial activity against […] infected in human erythrocytes assessed as inhibition of parasitic growth at 5 uM incubated for 72 hrs by SYBR green dye fluorimetric assay relative to control; type: functional, K1, Erythrocyte; parameters: scale not given: the % may be the effect or the level left
Plasmodium falciparum [10] = experiment: Induction of morphological changes in asexual blood stage Plasmodium falciparum assessed as appearance of condensed cytoplasm at 1 uM incubated for 24 hrs by Geimsa-staining based light microscopic analysis; type: functional, organism-based
Plasmodium berghei = experiment: Antimalarial activity against GFP-luciferase expressing liver stage Plasmodium berghei sporozoites infected in human HepG2 cells assessed as inhibition of parasitic growth by luminescence based analysis; type: functional, organism-based
Plasmodium falciparum [11] = experiment: Antimalarial activity against […] infected in human erythrocytes assessed as reduction in parasite growth incubated for 72 hrs by SYBR green dye fluorimetric assay; type: functional, organism-based; conditions: K1, Erythrocyte
Plasmodium falciparum [12] = experiment: Induction of morphological changes in asexual blood stage Plasmodium falciparum assessed as appearance of compact structure at 1 uM incubated for 24 hrs by Geimsa-staining based light microscopic analysis; type: functional, organism-based
Plasmodium falciparum [13] = experiment: Antimalarial activity against […] infected in human erythrocytes assessed as inhibition of parasitic growth at 0.16 to 0.63 uM incubated for 72 hrs by SYBR green dye fluorimetric assay relative to control; type: functional, K1, Erythrocyte; parameters: scale not given: the % may be the effect or the level left; conditions: dose 0.16-0.63 µM
Plasmodium falciparum [14] = experiment: Antimalarial activity against chloroquine-sensitive Plasmodium falciparum 3D7 infected in erythrocytes assessed as inhibition of parasite growth at 0.16 to 0.31 uM incubated for 72 hrs by SYBR green dye fluorimetric assay; type: functional, organism-based; conditions: Erythrocyte, dose 0.16-0.31 µM
Plasmodium yoelii [15] = experiment: Antimalarial activity against Plasmodium yoelii N67 infected in female Swiss mouse model assessed as mean survival time at 20 mg/kg administered orally; type: functional; conditions: route po
Plasmodium yoelii [16] = experiment: Antimalarial activity against Plasmodium yoelii N67 infected in female Swiss mouse model assessed as suppression in parasitic growth at 20 mg/kg, po measured on day 7 relative to control; type: functional
Plasmodium yoelii [17] = experiment: Antimalarial activity against Plasmodium yoelii N67 infected in female Swiss mouse model assessed as mean survival time at 10 mg/kg administered orally; type: functional; conditions: route po
Plasmodium yoelii [18] = experiment: Antimalarial activity against Plasmodium yoelii N67 infected in female Swiss mouse model assessed as parasite survival at 20 mg/kg, po measured after 7 days relative to control; type: functional; conditions: N67, 168 h, time 7 day
Plasmodium yoelii [19] = experiment: Antimalarial activity against Plasmodium yoelii N67 infected in female Swiss mouse model assessed as suppression in parasitic growth at 10 mg/kg, po measured on day 7 relative to control; type: functional; conditions: time 7 day
Plasmodium yoelii [20] = experiment: Antimalarial activity against Plasmodium yoelii N67 infected in female Swiss mouse model assessed as suppression in parasitic growth at 20 mg/kg, po measured on day 4 relative to control; type: functional
Plasmodium yoelii [21] = experiment: Antimalarial activity against Plasmodium yoelii N67 infected in female Swiss mouse model assessed as suppression in parasitic growth at 10 mg/kg, po measured on day 4 relative to control; type: functional; conditions: time 4 day

Row | Structure (SMILES) | IC50 (Plasmodium falciparum [1]) | CC50 [2] | selectivity ratio at 72 h [3] | Ratio IC50 [4] | IC50 (Plasmodium falciparum [11]) | further results
1 | C#CCNC(=O)c1cc2c([nH]c3ccccc32)c(-c2ccc(F)cc2)n1 | 3460 nM | 167000 nM |  |  |  | 
2 | Cc1ccc(-c2cn(-c3ccc(F)cc3)nn2)cc1 | 3670 nM | 159000 nM |  |  |  | 
3 | Cc1ccc(-c2nc(C(=O)NCc3cn(-c4ccc(F)cc4)nn3)cc3c2[nH]c2ccccc23)cc1 | 1940 nM | 177000 nM | 91.4 |  |  | 
4 | COc1ccc(-n2cc(CNC(=O)c3cc4c([nH]c5ccccc54)c(-c4ccccc4)n3)nn2)cc1 | 3050 nM | 195000 nM | 64 |  |  | 
5 | CCc1ccc(-n2cc(CNC(=O)c3cc4c([nH]c5ccccc54)c(-c4ccc(C)cc4)n3)nn2)cc1 | 750 nM | 200000 nM | 266 | 0.65 | 490 nM | Activity (Plasmodium falciparum [5]): Active; Irreversible Structural Deformations Observed; Activity (Plasmodium falciparum [6]): inactive; Activity (Plasmodium falciparum [7]): Active; Irreversible Structural Deformations Observed; Activity (Plasmodium falciparum [8]): inactive; Activity (Plasmodium falciparum [9]): 100%; Activity (Plasmodium falciparum [10]): Active; Irreversible Structural Deformations Observed; IC50 (Plasmodium berghei): 7580 nM; Activity (Plasmodium falciparum [12]): Active; Irreversible Structural Deformations Observed
6 | O=C(NCc1cn(-c2ccccc2)nn1)c1cc2c([nH]c3ccccc32)c(-c2ccccc2)n1 | 2920 nM | 220000 nM | 75.3 |  |  | 
7 | O=C(NCc1cn(-c2cccc(C(F)(F)F)c2)nn1)c1cc2c([nH]c3ccccc32)c(-c2ccccc2)n1 | 1470 nM | 200000 nM | 136 |  |  | 
8 | COc1ccc(-n2cc(CNC(=O)c3cc4c([nH]c5ccccc54)c(-c4ccc(Cl)cc4Cl)n3)nn2)cc1 | 920 nM | 221000 nM | 240 | 0.62 | 570 nM | Activity (Plasmodium falciparum [5]): Active; Irreversible Structural Deformations Observed; Activity (Plasmodium falciparum [6]): inactive; Activity (Plasmodium falciparum [7]): Active; Irreversible Structural Deformations Observed; Activity (Plasmodium falciparum [8]): inactive; Activity (Plasmodium falciparum [9]): 95.63%; Activity (Plasmodium falciparum [10]): Active; Irreversible Structural Deformations Observed; Activity (Plasmodium falciparum [12]): Active; Irreversible Structural Deformations Observed
9 | Cc1ccc(-c2nc(C(=O)NCc3cn(-c4ccccc4)nn3)cc3c2[nH]c2ccccc23)cc1 | 880 nM | 187000 nM | 213 | 0.36 | 320 nM | Activity (Plasmodium falciparum [5]): Active; Irreversible Structural Deformations Observed; Activity (Plasmodium falciparum [6]): inactive; Activity (Plasmodium falciparum [7]): Active; Irreversible Structural Deformations Observed; Activity (Plasmodium falciparum [8]): inactive; Activity (Plasmodium falciparum [9]): 82.3%; Activity (Plasmodium falciparum [10]): Active; Irreversible Structural Deformations Observed; IC50 (Plasmodium berghei): 4810 nM; Activity (Plasmodium falciparum [12]): Active; Irreversible Structural Deformations Observed
10 | O=C(NCc1cn(-c2ccccc2)nn1)c1cc2c([nH]c3ccccc32)c(-c2cccc(Cl)c2)n1 | 800 nM | 217000 nM | 271 | 1.025 | 820 nM | 
11 | O=C(NCc1cn(-c2ccc(F)cc2)nn1)c1cc2c([nH]c3ccccc32)c(-c2ccc(C(F)(F)F)cc2)n1 | 210 nM | 71700 nM | 341 | 2.9 | 610 nM | 
12 | O=C(NCc1cn(-c2ccc(OC(F)(F)F)cc2)nn1)c1cc2c([nH]c3ccccc32)c(-c2ccc(Cl)cc2Cl)n1 | 1550 nM | 187000 nM | 121 |  |  | 
13 | O=C(NCc1cn(-c2ccc(C(F)(F)F)cc2)nn1)c1cc2c([nH]c3ccccc32)c(-c2ccc(Cl)cc2Cl)n1 | 980 nM | 240000 nM | 245 | 0.78 | 760 nM | Activity (Plasmodium falciparum [5]): Active; Irreversible Structural Deformations Observed; Activity (Plasmodium falciparum [6]): inactive; Activity (Plasmodium falciparum [7]): Active; Irreversible Structural Deformations Observed; Activity (Plasmodium falciparum [8]): inactive; Activity (Plasmodium falciparum [9]): 95.63%; Activity (Plasmodium falciparum [10]): Active; Irreversible Structural Deformations Observed; Activity (Plasmodium falciparum [13]): 14%; Activity (Plasmodium falciparum [14]): Active; Activity (Plasmodium falciparum [12]): Active; Irreversible Structural Deformations Observed
14 | O=C(NCc1cn(-c2ccccc2)nn1)c1cc2c([nH]c3ccccc32)c(-c2ccc(Cl)cc2Cl)n1 | 2040 nM | 214000 nM | 105 |  |  | 
15 | COc1cc([C@@H]2c3cc4c(cc3[C@H](O)[C@H]3COC(=O)[C@H]23)OCO4)cc(OC)c1OC [PODOFILOX] |  | 8700 nM |  |  |  | 
16 | COc1ccc(-c2nc(C(=O)NCc3cn(-c4ccc(F)cc4)nn3)cc3c2[nH]c2ccccc23)cc1 | 1910 nM | 163000 nM | 85.5 |  |  | 
17 | COc1ccc(-c2nc(C(=O)NCc3cn(-c4ccccc4)nn3)cc3c2[nH]c2ccccc23)cc1 | 1570 nM | 79500 nM | 50.6 |  |  | 
18 | O=C(NCc1cn(-c2cccc(C(F)(F)F)c2)nn1)c1cc2c([nH]c3ccccc32)c(-c2ccc(Cl)cc2Cl)n1 | 1300 nM | 195000 nM | 150 |  |  | 
19 | O=C(NCc1cn(-c2ccc(F)cc2F)nn1)c1cc2c([nH]c3ccccc32)c(-c2ccc(Cl)cc2Cl)n1 | 1700 nM | 144000 nM | 84.5 |  |  | 
20 | O=C(NCc1cn(-c2ccc(F)cc2)nn1)c1cc2c([nH]c3ccccc32)c(-c2ccc(Cl)cc2Cl)n1 | 1840 nM | 167000 nM | 90.5 |  |  | 
21 | O=C(NCc1cn(-c2ccccc2)nn1)c1cc2c([nH]c3ccccc32)c(-c2ccc(C(F)(F)F)cc2)n1 | 370 nM | 159000 nM | 430 | 2.03 | 750 nM | 
22 | COc1ccc(-c2nc(C(=O)NCc3cn(-c4cccc(C(F)(F)F)c4)nn3)cc3c2[nH]c2ccccc23)cc1 | 450 nM | 200000 nM | 444 | 1.44 | 650 nM | 
23 | COc1cc(NC(C)CCCN)c2ncccc2c1 (configuration not stated) [PRIMAQUINE] |  |  |  |  |  | IC50 (Plasmodium berghei): 2500 nM
24 | CCN(CC)CCCC(C)Nc1ccnc2cc(Cl)ccc12 (configuration not stated) [CHLOROQUINE] |  |  |  |  |  | MST (Plasmodium yoelii [15]): >28 days; Activity (Plasmodium yoelii [16]): 91%; MST (Plasmodium yoelii [17]): 16 days; survival at 20 mg/kg (Plasmodium yoelii [18]): 60%; Activity (Plasmodium yoelii [19]): 88%; Activity (Plasmodium yoelii [20]): 99%; Activity (Plasmodium yoelii [21]): 97.8%
25 | Cc1ccc(-n2cc(CNC(=O)c3cc4c([nH]c5ccccc54)c(-c4ccc(Cl)cc4Cl)n3)nn2)cc1 | 2500 nM | 222000 nM | 88.8 |  |  | 
26 | O=C(NCc1cn(-c2ccc(F)cc2)nn1)c1cc2c([nH]c3ccccc32)c(-c2ccccc2)n1 | 1400 nM | 207000 nM | 148 |  |  | 
27 | O=C(NCc1cn(-c2ccc(F)cc2)nn1)c1cc2c([nH]c3ccccc32)c(-c2cccc(Cl)c2)n1 | 410 nM | 227000 nM | 553 | 1.61 | 660 nM | 
28 | O=C(NCc1cn(-c2cc(C(F)(F)F)cc(C(F)(F)F)c2)nn1)c1cc2c([nH]c3ccccc32)c(-c2ccc(Cl)cc2Cl)n1 | 2500 nM | 155000 nM | 120 |  |  | 
